Tested on: Mold, yeast, and bacteria
Assay: The antiseptic effectiveness evaluation test
Type: cell-based
Description: The Antiseptic Effectiveness Evaluation Test 30 ml of the sample was inoculated with microbe-containing fluid, and the change in the number of microbes was checked with the smearing method. Mold, yeast, and bacteria were used as the inoculation microbes. The antiseptic effectiveness was evaluated based on the changes in the number of the microbes in two weeks, and the obtained results were classified by using the following four step criterion. […] X: No reduction in microbes was observed.

For `CCCCC(CC)(CO)CO` [2-n-butyl-2-ethyl-1,3-propanediol], the “concentration at which an adequate effect on bacteria was confirmed” value (1,3-butylene glycol additionally blended into the composition) was 0.1% and the “concentration of 2-n-butyl-2-ethyl-1,3-propanediol at which the compositions showed adequate antiseptic effectiveness” value (lotions of Table 1-2, effect on all the mold, yeast, and bacteria) was ≥ 0.5%.

From patent US6620418B1, “Antiseptic/antifungal agent and endermic liniment composition which contains it” (Shiseido Company, Ltd., priority 1999, dated 2003)
